Test results reported in patent US20170073337A1, “DIHYDROTHIAZINE AND DIHYDROOXAZINE DERIVATIVES HAVING BACE1 INHIBITORY ACTIVITY” (Shionogi & Co., Ltd., priority 2014, published 2017).

Assays:
CYP2C9 = molecular target: T1, CYP2C9 (Homo sapiens, UniProt P11712); test: CYP inhibition test (CYP2C9); type: in vitro ADME; settings: pooled human liver microsomes; tolbutamide methyl-hydroxylation
T1 construct: The commercially available pooled human liver microsomes are used as an enzyme resource; from tissue; host or cells: pooled human liver microsomes
T1 sequence (P11712 whole entry): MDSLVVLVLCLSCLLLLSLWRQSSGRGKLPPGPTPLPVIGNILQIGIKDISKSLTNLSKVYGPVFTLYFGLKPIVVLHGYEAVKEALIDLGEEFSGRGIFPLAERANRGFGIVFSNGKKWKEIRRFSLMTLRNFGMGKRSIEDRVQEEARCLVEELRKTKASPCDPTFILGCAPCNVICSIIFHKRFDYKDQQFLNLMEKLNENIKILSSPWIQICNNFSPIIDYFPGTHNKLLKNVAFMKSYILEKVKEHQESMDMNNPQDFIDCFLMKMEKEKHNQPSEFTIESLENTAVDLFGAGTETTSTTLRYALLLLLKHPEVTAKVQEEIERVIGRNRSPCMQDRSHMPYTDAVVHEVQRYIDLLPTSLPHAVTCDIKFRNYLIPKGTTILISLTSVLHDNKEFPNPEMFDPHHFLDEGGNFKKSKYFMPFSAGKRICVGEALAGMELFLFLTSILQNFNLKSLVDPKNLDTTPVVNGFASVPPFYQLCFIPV
Method in brief: (§1)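 Pooled human liver microsomes (0.2 mg protein/mL) with compound at 1, 5, 10 and 20 μmol/L and NADPH, at 37 °C. Marker substrates: dextromethorphan 5 μmol/L (2D6), terfenadine 1 μmol/L (3A4), S-mephenytoin 50 μmol/L (2C19), tolbutamide 100 μmol/L (2C9). Metabolites were measured by LC/MS/MS, and IC50 was derived by logistic fit of remaining activity against the DMSO control.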

CYP2D6 = molecular target: T2, CYP2D6 (Homo sapiens, UniProt P10635); test: CYP inhibition test (CYP2D6); type: in vitro ADME; settings: pooled human liver microsomes; dextromethorphan O-demethylation
T2 construct: The commercially available pooled human liver microsomes are used as an enzyme resource; from tissue; host or cells: pooled human liver microsomes
T2 sequence (P10635 whole entry): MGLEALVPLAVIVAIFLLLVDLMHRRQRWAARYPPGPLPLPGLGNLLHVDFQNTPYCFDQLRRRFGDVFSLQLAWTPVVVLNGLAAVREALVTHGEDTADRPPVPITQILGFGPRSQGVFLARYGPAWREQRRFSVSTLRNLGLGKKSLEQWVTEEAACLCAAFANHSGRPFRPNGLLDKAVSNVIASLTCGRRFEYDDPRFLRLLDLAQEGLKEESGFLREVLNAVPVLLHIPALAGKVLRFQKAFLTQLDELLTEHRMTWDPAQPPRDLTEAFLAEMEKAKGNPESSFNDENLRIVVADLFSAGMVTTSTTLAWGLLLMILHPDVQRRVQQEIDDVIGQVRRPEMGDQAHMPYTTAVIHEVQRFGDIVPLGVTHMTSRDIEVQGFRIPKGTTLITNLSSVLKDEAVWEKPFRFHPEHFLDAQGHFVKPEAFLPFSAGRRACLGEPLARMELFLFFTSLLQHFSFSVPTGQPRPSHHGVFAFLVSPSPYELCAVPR
Method in brief: as §1

[1] = molecular target: T3, P-gp (MDR1 expressing LLC-PK1 cells) (Homo sapiens, UniProt P08183); test: P-gp substrate test; type: in vitro ADME; settings: net flux = Efflux Ratio in MDR1 expressing cells / Efflux Ratio in parent LLC-PK1 cells
T3 construct: host or cells: LLC-PK1
T3 sequence (P08183 whole entry): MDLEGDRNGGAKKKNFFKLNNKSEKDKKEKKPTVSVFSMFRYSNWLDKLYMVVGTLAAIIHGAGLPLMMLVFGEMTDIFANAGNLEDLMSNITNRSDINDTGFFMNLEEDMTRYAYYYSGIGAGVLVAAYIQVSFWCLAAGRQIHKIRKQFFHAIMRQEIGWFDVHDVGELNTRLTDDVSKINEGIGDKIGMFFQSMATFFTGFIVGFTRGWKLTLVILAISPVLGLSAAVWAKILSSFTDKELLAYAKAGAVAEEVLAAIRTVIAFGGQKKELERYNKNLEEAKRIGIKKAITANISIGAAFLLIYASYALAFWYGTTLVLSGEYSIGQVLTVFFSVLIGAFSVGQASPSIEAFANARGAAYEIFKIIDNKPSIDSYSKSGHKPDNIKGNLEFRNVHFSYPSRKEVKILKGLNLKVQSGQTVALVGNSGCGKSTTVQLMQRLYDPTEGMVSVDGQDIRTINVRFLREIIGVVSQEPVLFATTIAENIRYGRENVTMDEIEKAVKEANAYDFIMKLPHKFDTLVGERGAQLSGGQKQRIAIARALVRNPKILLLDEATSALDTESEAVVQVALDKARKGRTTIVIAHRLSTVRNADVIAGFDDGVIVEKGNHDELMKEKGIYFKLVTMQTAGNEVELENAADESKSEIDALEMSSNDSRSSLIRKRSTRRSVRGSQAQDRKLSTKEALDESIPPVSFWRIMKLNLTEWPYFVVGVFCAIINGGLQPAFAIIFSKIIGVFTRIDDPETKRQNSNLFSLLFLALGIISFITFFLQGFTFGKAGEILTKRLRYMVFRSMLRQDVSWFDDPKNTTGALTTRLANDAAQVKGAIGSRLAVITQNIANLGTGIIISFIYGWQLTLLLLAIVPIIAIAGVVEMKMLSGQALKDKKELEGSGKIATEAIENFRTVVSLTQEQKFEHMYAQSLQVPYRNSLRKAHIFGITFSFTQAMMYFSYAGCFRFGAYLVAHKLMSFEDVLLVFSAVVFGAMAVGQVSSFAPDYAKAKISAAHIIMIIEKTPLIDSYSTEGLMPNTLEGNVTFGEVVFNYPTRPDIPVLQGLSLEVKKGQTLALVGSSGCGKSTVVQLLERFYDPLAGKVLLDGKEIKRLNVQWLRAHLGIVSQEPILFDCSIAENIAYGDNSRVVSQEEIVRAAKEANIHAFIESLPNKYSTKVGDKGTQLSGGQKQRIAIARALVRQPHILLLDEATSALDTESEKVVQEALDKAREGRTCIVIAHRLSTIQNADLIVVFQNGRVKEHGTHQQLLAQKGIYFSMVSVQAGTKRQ
Description: • 1. Cell line: • a. MDR/LLC-PK1 (Becton Dickinson) • b. LLC-PK1 (Becton Dickinson) • 2. Reference substrates: • a Digoxin (2 μM)
1. […] After incubation for designed time at 37° C., an aliquot (50 μL) of transport buffer in the donor and receiver side were collected. Assay was performed by duplicate or triplicate. 3. Reference substrate and the present invention in the aliquot was quantified by LC/MS/MS.
Pc(cm/sec)−Permeated amount (pmol)/area of cell membrane (cm2)/initial concentration (nM)/incubation time (sec)
The efflux ratio was calculated using the following equation:
Efflux Ratio=Basolateral-to-Apical Pe/Apical-to-Basolateral Pe
The net flux was calculated using the following equation
Net flux=Efflux Ratio in MDK1 expressing cells/Efflux Ratio in parent cells

Recombinant human BACE1 = molecular target: T4, Recombinant human BACE1 (Homo sapiens, UniProt P56817); test: Assay of BACE1 inhibitory activity: 384-well; type: biochemical; settings: Assay format 384-well
T4 construct: purchased R&D Systems
T4 sequence (P56817 46-501): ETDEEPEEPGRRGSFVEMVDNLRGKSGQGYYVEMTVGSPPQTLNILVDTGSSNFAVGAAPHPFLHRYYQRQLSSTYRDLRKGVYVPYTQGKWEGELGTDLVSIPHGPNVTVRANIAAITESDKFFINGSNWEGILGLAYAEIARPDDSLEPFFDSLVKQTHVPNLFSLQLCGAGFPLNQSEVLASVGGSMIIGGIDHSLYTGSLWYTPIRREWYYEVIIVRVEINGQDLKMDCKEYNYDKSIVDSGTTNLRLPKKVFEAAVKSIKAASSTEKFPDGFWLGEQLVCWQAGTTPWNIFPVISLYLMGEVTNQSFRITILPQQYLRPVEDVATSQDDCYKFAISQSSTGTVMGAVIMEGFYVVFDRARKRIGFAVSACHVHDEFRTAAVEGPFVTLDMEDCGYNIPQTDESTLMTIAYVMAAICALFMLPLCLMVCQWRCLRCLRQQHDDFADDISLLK
Method in brief: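 Recombinant human BACE1 was incubated 2 h at 25 °C with a biotin/Eu-cryptate-labelled peptide substrate and compound in DMSO. Streptavidin-XL665 in pH 7.0 phosphate buffer containing 0.8 mol/L KF was then added for 30 min at 25 °C for HTRF detection.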

[2] = system: Aβ production in neuroblastoma SH-SY5Y cells (SH/APPwt); test: β-amyloid (Aβ) production inhibitory effect in cell: 384-well; type: cell-based; settings: Homo sapiens, Assay format 384-well
Method in brief: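 Aβ1-40 secreted by SH/APPwt neuroblastoma cells was quantified by HTRF (overnight, 4 °C, light-protected; emission 620/665 nm). Cells were exposed to compound from seeding for 21 h at 1% final DMSO.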

| IC50 (CYP2C9) | IC50 (CYP2D6) | ER ratio (Cell: MDR1/LLC-PK1) [1] | IC50 (Recombinant human BACE1) | IC50 [2] | SMILES |
| --- | --- | --- | --- | --- | --- |
| ≥ 20000 nM | – | 0.73 | – | – | COc1cnc(C(=O)Nc2ccc(F)c([C@@]3(C)N=C(N)O[C@H]([C@H](C)F)[C@@H]3F)c2)cn1 [Compound I-17] |
| ≥ 20000 nM | ≥ 20000 nM | – | – | – | CO[C@H]1[C@@H](CF)OC(N)=N[C@]1(C)c1cc(NC(=O)c2ccc(C#N)cn2)ccc1Cl [Compound I-18] |
| ≥ 20000 nM | ≥ 20000 nM | – | – | – | CO[C@H]1[C@@H](CF)OC(N)=N[C@]1(C)c1cc(NC(=O)c2ccc(F)cn2)ccc1Cl [Compound I-20] |
| ≥ 20000 nM | ≥ 10000 nM | – | – | – | CO[C@H]1[C@@H](CF)OC(N)=N[C@]1(C)c1cc(NC(=O)c2cnc(OCF)cn2)ccc1F [Compound I-24] |
| ≥ 20000 nM | ≥ 20000 nM | – | – | – | CO[C@H]1[C@@H](CF)OC(N)=N[C@]1(C)c1cc(NC(=O)c2ccc(F)cn2)ccc1F [Compound I-25] |
| ≥ 20000 nM | ≥ 20000 nM | – | – | – | C[C@@H]1[C@@H](C(F)(F)F)OC(N)=N[C@]1(C)c1cc(NC(=O)c2ccc(C#N)cn2)ccc1F [Compound I-27] |
| ≥ 20000 nM | ≥ 20000 nM | 1.2 | – | – | C[C@H]1[C@@H](C(F)(F)F)OC(N)=N[C@]1(C)c1cc(NC(=O)c2ccc(C#N)cn2)ccc1F [Compound I-28] |
| ≥ 20000 nM | – | 3.2 | – | – | C[C@H]1[C@@H](C(F)F)OC(N)=N[C@]1(C)c1cc(NC(=O)c2cnc(OCF)cn2)ccc1F [Compound I-33] |
| ≥ 20000 nM | ≥ 10000 nM | 4.6 | – | – | C[C@]1(c2cc(NC(=O)c3cnc(OCF)cn3)ccc2F)N=C(N)OCC12CC(F)(F)C2 [Compound I-44] |
| – | – | 1.1 | 7.77 nM | 0.39 nM | COc1ccc(C(=O)Nc2ccc(F)c([C@@]3(C)N=C(N)S[C@H](C)[C@@H]3F)c2)nc1 [Compound I-50] |
| – | – | 0.56 | 17.5 nM | 0.41 nM | C[C@H]1SC(N)=N[C@](C)(c2cc(NC(=O)c3ccc(OCF)cn3)ccc2F)[C@H]1F [Compound I-51] |
| – | ≥ 20000 nM | – | 14.5 nM | 0.89 nM | C[C@H]1SC(N)=N[C@](C)(c2cc(NC(=O)c3ncc(OCC(F)(F)F)cn3)ccc2F)[C@H]1F [Compound I-53] |
| – | ≥ 10000 nM | – | 10.6 nM | 2 nM | CC[C@H]1SC(N)=N[C@](C)(c2cc(NC(=O)c3ccc(F)cn3)ccc2F)[C@H]1F [Compound I-70] |
| ≥ 10000 nM | – | 0.8 | 15.6 nM | 8.3 nM | CC(F)(F)[C@H]1OC(N)=N[C@](C)(c2cc(NC(=O)c3cnc(OCC(F)(F)F)cn3)ccc2F)[C@H]1F [Compound I-75] |
| ≥ 10000 nM | – | 1.2 | 45.8 nM | 79 nM | CC(F)(F)[C@H]1OC(N)=N[C@](C)(c2cc(NC(=O)c3cnc(OCC(F)F)cn3)ccc2F)[C@H]1F [Compound I-77] |
| ≥ 10000 nM | – | 1.7 | 13.2 nM | 4.5 nM | COCC(F)(F)[C@H]1OC(N)=N[C@](C)(c2cc(NC(=O)c3cnc(OCF)cn3)ccc2F)[C@H]1F [Compound I-79] |
| – | – | 0.96 | 25.1 nM | 17 nM | C[C@]1(c2cc(NC(=O)c3cnc(OCF)cn3)ccc2F)N=C(N)O[C@H](C(F)(F)C2CC2)[C@@H]1F [Compound I-82] |
| – | ≥ 20000 nM | – | 15.4 nM | 4.8 nM | C[C@H]1SC(N)=N[C@](C)(c2cc(NC(=O)c3cnc(OCC4CC4)cn3)ccc2F)[C@H]1F [Compound I-85] |
| ≥ 20000 nM | – | 1.5 | 101 nM | 2.21 nM | COc1cnc(C(=O)Nc2ccc(F)c([C@@]3(C)N=C(N)O[C@H](C(F)F)[C@@H]3C)c2)cn1 [Compound I-86] |
| ≥ 20000 nM | ≥ 20000 nM | – | 15.1 nM | 1.5 nM | CO[C@H]1[C@@H](C)SC(N)=N[C@]1(C)c1cc(NC(=O)c2ccc(F)cn2)ccc1F [Compound I-89] |
| – | – | 1.1 | 25.3 nM | 11 nM | C[C@]1(c2cc(NC(=O)c3ccc(OCF)cn3)ccc2F)N=C(N)O[C@H](C2(F)CC2)[C@@H]1F [Compound I-101] |
| – | – | 8.5 | 10.8 nM | 0.45 nM | C[C@]1(c2cc(NC(=O)c3cnc(OCF)cn3)ccc2F)N=C(N)S[C@H](CO)[C@@H]1F [Compound I-109] |

Second part, the compound before the results:

| SMILES | IC50 (CYP2C9) | IC50 (CYP2D6) | ER ratio (Cell: MDR1/LLC-PK1) [1] | IC50 (Recombinant human BACE1) | IC50 [2] |
| --- | --- | --- | --- | --- | --- |
| C[C@]1(c2cc(NC(=O)c3ccc(F)cn3)ccc2F)N=C(N)O[C@H](CF)[C@@H]1OCC(F)(F)F [Compound I-11] | ≥ 10000 nM | ≥ 10000 nM | – | – | – |
| C[C@H]1[C@H](C(F)(F)F)OC(N)=N[C@]1(C)c1cc(NC(=O)c2ccc(C#N)cn2)ccc1F [Compound I-29] | ≥ 20000 nM | ≥ 20000 nM | – | – | – |
| C[C@H]1[C@@H](C(F)F)OC(N)=N[C@]1(C)c1cc(NC(=O)c2ccc(C#N)cn2)ccc1F [Compound I-31] | ≥ 20000 nM | ≥ 20000 nM | 2.9 | – | – |
| Cc1nc(C(=O)Nc2ccc(F)c([C@@]3(C)N=C(N)O[C@H](C(F)(F)F)[C@@H]3C)c2)co1 [Compound I-32] | ≥ 20000 nM | ≥ 10000 nM | – | – | – |
| C[C@]1(c2cc(NC(=O)c3ccc(C#N)cn3)ccc2F)N=C(N)O[C@H]2[C@@H]1OCC2(F)F [Compound I-35] | ≥ 20000 nM | ≥ 20000 nM | 2.1 | – | – |
| C[C@]1(c2cc(NC(=O)c3ccc(F)cn3)ccc2F)N=C(N)OCC12CC(F)(F)C2 [Compound I-45] | ≥ 20000 nM | ≥ 20000 nM | – | – | – |
| C[C@H]1SC(N)=N[C@](C)(c2cc(NC(=O)c3coc(CF)n3)ccc2F)[C@H]1F [Compound I-49] | ≥ 10000 nM | ≥ 20000 nM | – | 3.13 nM | 0.025 nM |
| COc1cnc(C(=O)Nc2ccc(F)c([C@@]3(C)N=C(N)SCC34CC(F)(F)C4)c2)cn1 [Compound I-55] | ≥ 20000 nM | – | 0.9 | 19.8 nM | 0.3 nM |
| C[C@]1(c2cc(NC(=O)c3ccc(C#N)cn3)ccc2F)N=C(N)SCC12CC(F)(F)C2 [Compound I-59] | ≥ 20000 nM | – | 1.2 | 10.9 nM | 0.058 nM |
| C[C@H]1SC(N)=N[C@](C)(c2cc(NC(=O)c3ccc(F)cn3)ccc2F)C12CC(F)(F)C2 [Compound I-63] | ≥ 10000 nM | – | – | 11.9 nM | 5.4 nM |
| C[C@H]1SC(N)=N[C@](C)(c2cc(NC(=O)c3ncc(C#N)cc3Cl)ccc2F)[C@H]1F [Compound I-64] | – | ≥ 20000 nM | 3.2 | 7.06 nM | 0.22 nM |
| CC[C@H]1SC(N)=N[C@](C)(c2cc(NC(=O)c3cnc(OCF)cn3)ccc2F)[C@H]1F [Compound I-66] | – | – | 0.6 | 5.62 nM | 0.13 nM |
| CC[C@H]1SC(N)=N[C@](C)(c2cc(NC(=O)c3ccc(OCF)cn3)ccc2F)[C@H]1F [Compound I-67] | – | – | 0.9 | 5.47 nM | 0.56 nM |
| COc1cnc(C(=O)Nc2ccc(F)c([C@@]3(C)N=C(N)O[C@H]([C@@H](C)F)[C@@H]3F)c2)cn1 [Compound I-71] | ≥ 20000 nM | – | 0.92 | 12 nM | 0.54 nM |
| CC#CCOc1cnc(C(=O)Nc2ccc(F)c([C@@]3(C)N=C(N)O[C@H](C(C)(F)F)[C@@H]3F)c2)cn1 [Compound I-76] | – | – | 1 | 3.77 nM | 1.6 nM |
| C[C@]1(c2cc(NC(=O)c3ccc(C#N)cn3)ccc2F)N=C(N)O[C@H](C(F)(F)C2CC2)[C@@H]1F [Compound I-81] | ≥ 10000 nM | – | – | 16.9 nM | 21 nM |
| COc1cnc(C(=O)Nc2ccc(F)c([C@@]3(C)N=C(N)O[C@H](C(F)(F)C4CC4)[C@@H]3F)c2)cn1 [Compound I-83] | – | – | – | 30.3 nM | 14 nM |
| CO[C@H]1[C@@H](C)SC(N)=N[C@]1(C)c1cc(NC(=O)c2ccc(C#N)cn2)ccc1F [Compound I-88] | ≥ 20000 nM | ≥ 20000 nM | – | 14.4 nM | 0.13 nM |
| COc1ccc(C(=O)Nc2ccc(F)c([C@@]3(C)N=C(N)S[C@H](C)[C@@H]3F)c2)nn1 [Compound I-108] | – | ≥ 10000 nM | 1.4 | 136 nM | 8.8 nM |
